From ChEMBL document CHEMBL1155461, “Emerging targets in osteoporosis disease modification” (J Med Chem, 2010)

Assays:
Osteoclast = assay: Inhibition of osteoclastogenesis in RANKL/M-CSF-stimulated osteoclast; format: functional, cell-based
[1] = molecular target: T1, Extracellular calcium-sensing receptor (Homo sapiens, UniProt P41180)
T1 sequence (P41180 whole entry): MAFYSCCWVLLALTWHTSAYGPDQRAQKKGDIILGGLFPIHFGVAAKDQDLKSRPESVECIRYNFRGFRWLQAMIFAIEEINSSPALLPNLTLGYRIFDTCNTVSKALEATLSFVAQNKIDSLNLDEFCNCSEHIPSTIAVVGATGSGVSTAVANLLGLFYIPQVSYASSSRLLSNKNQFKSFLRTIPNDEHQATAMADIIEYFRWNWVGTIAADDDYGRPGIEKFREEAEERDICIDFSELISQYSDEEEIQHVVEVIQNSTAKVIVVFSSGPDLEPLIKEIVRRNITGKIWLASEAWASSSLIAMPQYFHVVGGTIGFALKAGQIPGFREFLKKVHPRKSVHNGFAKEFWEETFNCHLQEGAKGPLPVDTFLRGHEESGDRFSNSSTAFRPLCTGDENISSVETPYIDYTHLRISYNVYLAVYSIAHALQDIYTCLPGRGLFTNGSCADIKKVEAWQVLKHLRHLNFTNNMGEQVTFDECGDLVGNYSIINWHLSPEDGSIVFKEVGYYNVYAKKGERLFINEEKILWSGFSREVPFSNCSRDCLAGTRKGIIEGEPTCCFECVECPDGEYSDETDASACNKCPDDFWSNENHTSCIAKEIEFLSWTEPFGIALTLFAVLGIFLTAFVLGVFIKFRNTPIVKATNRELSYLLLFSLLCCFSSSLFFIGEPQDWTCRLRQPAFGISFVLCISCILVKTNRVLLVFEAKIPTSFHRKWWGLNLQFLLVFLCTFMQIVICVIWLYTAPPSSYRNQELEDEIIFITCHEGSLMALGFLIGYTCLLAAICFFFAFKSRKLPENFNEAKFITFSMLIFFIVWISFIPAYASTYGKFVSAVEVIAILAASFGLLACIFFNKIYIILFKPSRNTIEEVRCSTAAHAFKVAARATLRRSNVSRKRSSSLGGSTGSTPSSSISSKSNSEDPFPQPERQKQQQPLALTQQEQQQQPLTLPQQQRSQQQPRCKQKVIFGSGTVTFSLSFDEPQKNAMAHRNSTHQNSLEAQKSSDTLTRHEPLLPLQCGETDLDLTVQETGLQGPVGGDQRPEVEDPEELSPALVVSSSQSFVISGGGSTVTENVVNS

Rattus norvegicus [2] = assay: Short duration (5-10 min) elevation in PTH as Cmax in rats after 3 umol/kg intravenous dose; format: functional
Mus musculus [3] = assay: Antiosteoporotic activity in mouse assessed as increase in bone volume at 10 mg/kg administered 3 times a week for 8 weeks; format: functional, Bone element
[4] = molecular target: G-protein coupled receptor 55 (Homo sapiens, UniProt Q9Y2T6); assay: Binding affinity to GPR55
Mus musculus [5] = species: Mus musculus; assay: Induction of bone formation in GPR55 knockout male mouse assessed as increase in tibia mass volume; format: functional
Mus musculus [6] = species: Mus musculus; assay: Induction of bone formation in GPR55 knockout male mouse assessed as increase in femur mass volume; format: functional
Mus musculus [7] = assay: Antiosteoporotic activity in mouse assessed as decrease in bone resorption-associated serum CTX-1 level at 10 mg/kg administered 3 times a week for 8 weeks; format: functional; conditions: 1344 h
Rattus norvegicus [8] = assay: Induction of bone formation in ovariectomized rat assessed as increase in bone mineralizing surface area at 30 mg/kg, po after 28 days (RVb = 30.4%); format: functional
Rattus norvegicus [9] = assay: Induction of bone formation in ovariectomized rat assessed as bone mineral apposition rate per day at 30 mg/kg, po after 28 days (RVb = 1.43 uM); format: functional
Rattus norvegicus [10] = assay: Short duration (5-10 min) elevation in PTH as Cmax in rats after 10 umol/kg intravenous dose; format: functional, organism-based
Homo sapiens [11] = assay: Antiosteoporotic activity in postmenopausal woman with osteoporosis assessed as increase lumbar spine bone mineral density at 50 mg/kg; format: functional
Homo sapiens [12] = assay: Antiosteoporotic activity in postmenopausal woman with osteoporosis assessed as increase hip bone mineral density at 50 mg/kg; format: functional, Bone of hip region
Homo sapiens [13] = assay: Antiosteoporotic activity in postmenopausal woman with osteoporosis assessed as decrease in bone resorption-associated serum CTX-1 level at 50 mg/kg; format: functional
Homo sapiens [14] = assay: Antiosteoporotic activity in postmenopausal woman with osteoporosis assessed as decrease in bone resorption-associated urinary CTX-1 level at 50 mg/kg; format: functional; conditions: Urine
Integrin alpha-V/beta-3 = Integrin alpha-V/beta-3 (Homo sapiens, UniProt P05106+P06756); assay: Inhibition of integrin alpha-V-beta-3-mediated adhesion of HEK293 cells; format: cell-based
[15] = Selectivity for integrin alphaVbeta3 over integrin alpha2Bbeta3
[16] = molecular target: Integrin alpha-V/beta-6 (Homo sapiens) (UniProt P06756+P18564); assay: Inhibition of integrin alpha-V-beta-6-mediated adhesion of human HT-29 cells; format: cell-based
[17] = molecular target: Integrin alpha-V/beta-1 (Homo sapiens) (UniProt P05556+P06756); assay: Inhibition of integrin alpha-V-beta-1-mediated adhesion of HEK293 cells; format: cell-based
[18] = molecular target: Integrin alpha-V/beta-5 (Homo sapiens) (UniProt P06756+P18084); assay: Inhibition of integrin alpha-V-beta-5-mediated adhesion of HEK293 cells; format: cell-based
MC3T3-E1 [19] = assay: Induction of osteogenesis in mouse MC3T3-E1 cells assessed as increase in osteoblast differentiation-associated ALP level at 0.01 uM; format: functional
MC3T3-E1 [20] = assay: Induction of osteogenesis in mouse MC3T3-E1 cells assessed as increase in bone mineralization at 1 uM; format: functional
[21] = Selectivity for cathepsin K over cathepsin V
[22] = Selectivity for cathepsin K over cathepsin H
[23] = Selectivity for cathepsin K over cathepsin B
[24] = Selectivity for cathepsin K over cathepsin S
[25] = Selectivity for cathepsin K over cathepsin F
Cathepsin K [26] = molecular target: Cathepsin K (Homo sapiens, UniProt P43235); assay: Inhibition of humanized rabbit cathepsin K
[27] = Selectivity for cathepsin K over cathepsin L
[28] = Clearance in rat; format: ADME, organism-based; conditions: in vivo
Cathepsin K [29] = molecular target: Cathepsin K (Homo sapiens, UniProt P43235)
Target sequence in this assay (P43235 whole entry): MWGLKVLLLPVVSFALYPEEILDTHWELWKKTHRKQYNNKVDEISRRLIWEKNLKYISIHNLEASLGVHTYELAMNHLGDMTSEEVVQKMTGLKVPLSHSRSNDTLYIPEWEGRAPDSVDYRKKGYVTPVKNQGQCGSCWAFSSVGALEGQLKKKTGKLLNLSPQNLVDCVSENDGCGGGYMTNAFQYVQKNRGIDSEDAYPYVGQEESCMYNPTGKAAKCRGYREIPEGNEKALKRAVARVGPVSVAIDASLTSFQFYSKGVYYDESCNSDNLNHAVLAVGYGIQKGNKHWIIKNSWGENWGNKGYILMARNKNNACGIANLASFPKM

MC3T3-E1 [30] = assay: Induction of osteogenesis in mouse MC3T3-E1 cells assessed as increase in osteoblast differentiation-associated collagen synthesis at 0.01 uM; format: functional

Chain of G-protein coupled receptor 55 (Q9Y2T6 whole entry): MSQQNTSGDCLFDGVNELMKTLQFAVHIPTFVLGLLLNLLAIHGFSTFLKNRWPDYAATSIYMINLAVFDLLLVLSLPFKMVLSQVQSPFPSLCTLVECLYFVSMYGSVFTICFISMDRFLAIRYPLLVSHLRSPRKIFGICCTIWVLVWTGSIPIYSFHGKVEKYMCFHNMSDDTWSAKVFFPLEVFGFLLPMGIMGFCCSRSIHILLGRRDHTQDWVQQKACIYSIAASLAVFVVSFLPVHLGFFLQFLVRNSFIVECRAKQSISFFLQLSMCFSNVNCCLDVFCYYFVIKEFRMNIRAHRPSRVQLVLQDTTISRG

Compound: CC1(C)C(=O)CC[C@]2(C)[C@@H]1CC[C@@]13CC4[C@@H](C[C@H]12)[C@]4(C(=O)O)C3
- IC50 (Osteoclast): 4 µM

Compound: CCc1cc2c(=O)n(CCc3ccccc3F)c(-c3ccccc3O)nc2cc1C
- IC50 [1]: 0.097 µM
- Cmax PTH (Rattus norvegicus [2]): 600 pg/mL

Compound: C=C(C)[C@@H]1CCC(C)=C[C@H]1c1c(O)cc(CCCCC)cc1O [CANNABIDIOL]
- Activity (Mus musculus [3]): 10%
- EC50 [4]: 0.445 µM
- Activity (Mus musculus [5]): 136%
- Activity (Mus musculus [6]): 149%
- inhibition in vivo at 10 mg/kg (Mus musculus [7]): 18%

Compound: CN(c1ccccc1CNc1nc(Nc2ccc3c(c2)CC(=O)N3)ncc1C(F)(F)F)S(C)(=O)=O
- Activity (Rattus norvegicus [8]): 40.6%
- mineral apposition rate (Rattus norvegicus [9]): 1.96 µm/day

Compound: O=c1c2ccccc2nc(-c2ccccc2O)n1CCc1ccccc1
- Cmax PTH (Rattus norvegicus [10]): 400 pg/mL

Compound: CCOC(=O)CCc1ccc(C#N)c(OC[C@H](O)CNC(C)(C)CC2Cc3ccccc3C2)c1
- IC50 [1]: 0.52 µM

Compound: CCCN1CCN(c2ccc(C(=O)NC3(C(=O)NCC#N)CCCCC3)cc2)CC1 [BALICATIB]
- Activity (Homo sapiens [11]): 4.46%
- Activity (Homo sapiens [12]): 2.25%
- inhibition in vivo at 50 mg/kg (Homo sapiens [13]): 61%
- inhibition in vivo at 50 mg/kg (Homo sapiens [14]): 55%

Compound: O=C(O)C[C@H](Cc1nc(CCCc2ccc3c(n2)NCCC3)no1)c1ccc2c(c1)OCO2
- Activity (Integrin alpha-V/beta-3): 0.65 nM
- Selectivity ratio [15]: 67
- Activity [16]: 2.7 µM
- Activity [17]: 2.6 nM
- Activity [18]: 1.7 nM

Compound: COc1cc2c(O)c3c(O)c(OC)c(O[C@@H]4O[C@H](CO)[C@@H](O)[C@H](O)[C@H]4O)cc3c(O)c2c(O)c1OC
- Activity (MC3T3-E1 [19]): 135%
- Activity (MC3T3-E1 [20]): 115%

Compound: CS(=O)(=O)c1ccc(-c2cn(CC(F)(F)F)nc2[C@@H]2CCC(Cl)(Cl)C[C@H]2C(=O)NC2(C#N)CC2)cc1
- Selectivity ratio [21]: 1100
- Selectivity ratio [22]: > 140000
- Selectivity ratio [23]: > 16000
- Selectivity ratio [24]: 4300
- Selectivity ratio [25]: 110
- IC50 (Cathepsin K [26]): 0.00062 µM
- Selectivity ratio [27]: 4700

Compound: CC(C)(CC1Cc2ccccc2C1)NC[C@@H](O)COc1cc(CCC(=O)O)ccc1C#N [SB-423562]
- clearance [28]: 5.34 L/h/kg
- IC50 [1]: 0.073 µM

Compound: CN1CCN(c2nc(-c3ccc(C(=O)NC4(C(=O)N[C@@H]5C(=O)N[C@@H]5Oc5ccccc5)CCCCC4)cc3)cs2)CC1
- Selectivity ratio [23]: 71
- Ki (Cathepsin K [29]): 0.0048 µM
- Selectivity ratio [24]: 3540
- Selectivity ratio [27]: 500

Compound: CC(C)(C)Cn1c(CN2C(=O)CC3(CCNCC3)C2=O)cc2cnc(C#N)nc21
- IC50 (Cathepsin K [29]): < 0.001 µM
- Selectivity ratio [24]: > 10000
- Selectivity ratio [27]: > 1000

Compound: COc1c(O)cc2c(O)c3c(O)c(O)c(O[C@@H]4O[C@@H](C)[C@H](O)[C@@H](O)[C@H]4O)cc3c(O)c2c1O
- Activity (MC3T3-E1 [20]): 125%
- Activity (MC3T3-E1 [30]): 111%
